Results on one substance are retold here after publication PMC12176268, “Structural Features and Photophysical and Antiproliferative Properties of Me2N‑pbt-Cycloplatinated Complexes with Picolinate Ligands” (Inorganic Chemistry, 2025).

This assay addresses bovine serum albumin (BSA) (Bos taurus, UniProt P02769). Kind of assay: Emission and UV–vis titration of complex 3 with BSA. The assay is classed as binding. As to conditions: 10 μM complex, BSA 0–50 μM, H2O/DMSO 95/5, λexc 450 nm. How it is done: The possible interaction of these Pt(II) complexes with the model protein bovine serum albumin (BSA) was studied by fluorescence and UV–vis spectroscopy. […] The effect of increasing the amount of BSA (from 0 to 50 μM) on solutions of complex 3 in mixtures of H2O/DMSO (95/5 v/v) while keeping the concentration of 3 (10 μM) constant was evaluated. Upon addition of BSA (3/BSA 1:0.25), a slight blue shift of the emission band from 510 to 495 nm is observed, and a clear switch-on of the monomer phosphorescence (^3ILCT), as a structured band slightly blue-shifted (ca. 574 nm) in relation to the complex in DMSO is observed. The intensity of this latter band reaches a maximum when the 3/BSA ratio was ca 1:1 (Figure ). […] In particular, the decrease in fluorescence emission and the switch-on of the monomer phosphorescence can be attributed to the binding of 3 to the hydrophobic pockets of the protein, which increases the rigidity of its environment and decreases the nonradiative constant.
For the BSA binding experiment, solutions of complex 3 with BSA in mixtures of DMSO/H2O (5/95 v/v) were prepared, keeping the concentration of 3 (10 μM) constant and increasing the amount of BSA (from 0 to 50 μM). […] The fluorescence intensities were then measured at λexc = 450 nm, and the emission fluorescence spectra were recorded in the wavelength range λ = 400–800 nm.

Chain of bovine serum albumin (BSA) (P02769 25-607): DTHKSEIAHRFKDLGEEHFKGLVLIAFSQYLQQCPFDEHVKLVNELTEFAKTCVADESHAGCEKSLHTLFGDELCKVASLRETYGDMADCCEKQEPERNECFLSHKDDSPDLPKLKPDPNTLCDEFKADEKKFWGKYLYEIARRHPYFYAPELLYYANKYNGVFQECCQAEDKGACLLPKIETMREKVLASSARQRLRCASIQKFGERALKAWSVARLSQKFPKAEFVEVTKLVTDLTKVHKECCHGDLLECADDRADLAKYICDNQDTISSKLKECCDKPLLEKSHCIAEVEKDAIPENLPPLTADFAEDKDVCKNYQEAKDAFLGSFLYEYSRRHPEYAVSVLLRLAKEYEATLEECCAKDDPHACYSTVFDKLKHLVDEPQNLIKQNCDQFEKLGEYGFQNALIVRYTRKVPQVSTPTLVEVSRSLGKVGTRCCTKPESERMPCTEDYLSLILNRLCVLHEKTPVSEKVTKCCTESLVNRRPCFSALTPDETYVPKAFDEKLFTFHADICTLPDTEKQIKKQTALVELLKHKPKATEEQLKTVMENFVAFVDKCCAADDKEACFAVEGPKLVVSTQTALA

Consider “[Pt(Me2N-pbt)(3-OH-pic-κN,O)] [Complex 3]”, for which the “interaction with BSA (changes of emission and UV–vis spectra)” value was “interacts strongly with BSA”.
